According to patent publication EP4556004A1 (priority 2023, dated 2025):
Where two headings read alike, the source gives them in different places.

Legend:
[1] = system: HCoV-229E; assay: microbe, parasite or virus in culture; assay type: cell-based, Human coronavirus 229E
[2] = system: SARS-CoV-2; assay: SARS-CoV-2 antiviral assay in human primary epithelial nasal cells (Mucilair); assay type: cell-based, severe acute respiratory syndrome coronavirus-2
[3] = system: HCoV-229E; assay type: cell-based, Human coronavirus 229E

| Molecule | IC50 ([1]; Human coronavirus 229E, Huh-7) | other results |
| --- | --- | --- |
| CC(C)=CCC1(CC=C(C)C)C(=O)C(C(=O)C(C)C)=C(O)C(C(=O)C(C)C)=C1O [AH66-F1, 1,1'-(2,4-dihydroxy-5,5-bis(3-methylbut-2-en-1-yl)-6-oxocyclohexa-1,3-diene-1,3-diyl)bis(2-methylpropan-1-one)] | < 12 µM | – |
| CC(C)=CCc1c(O)cc(O)c(C(=O)C(C)C)c1O [AH62-F2, 2-methyl-1-(2,4,6-trihydroxy-3-(3-methylbut-2-en-1-yl)phenyl)propan-1-one] | – | IC50 [1]: < 3 µM |
| CC(C)=CCC1=C(O)C(CC=C(C)C)(CC=C(C)C)C(=O)C(C(=O)CCCCCNc2ccc([N+](=O)[O-])c3nonc23)=C1O [AH77-F1, 3,5-dihydroxy-4,6,6-tris(3-methylbut-2-en-1-yl)-2-(6-((7-nitrobenzo[c][1,2,5]oxadiazol-4-yl)amino)hexanoyl)cyclohexa-2,4-dien-1-one] | < 12 µM | – |
| CC(C)=CCC1=C(O)C(CC=C(C)C)(CC=C(C)C)C(=O)C(C(=O)/C=C/c2ccc(C(F)(F)F)cc2)=C1O [AH44-F2, (E)-3,5-dihydroxy-4,6,6-tris(3-methylbut-2-en-1-yl)-2-(3-(4-(trifluoromethyl)phenyl)acryloyl)cyclohexa-2,4-dien-1-one] | < 12 µM | – |
| CC(C)=CCC1=C(O)C(C(=O)C(C)C)=C(O)C(CC=C(C)C)(CC=C(C)C)C1=O [Colupulone, Co-lupulone] | – | IC50 [1]: < 3 µM; reduction of SARS-CoV-2 infection [2]: able to reduce; reduction of HCoV-229E infection [3]: able to reduce |
| CCC(C)C(=O)C1=C(O)C(CC=C(C)C)=C(O)C(CC=C(C)C)(CC=C(C)C)C1=O (stereo not drawn) [AH8-F2, 3,5-dihydroxy-4,6,6-tris(3-methylbut-2-en-1-yl)-2-(2-methylbutanoyl)cyclohexa-2,4-dien-1-one] | < 12 µM | – |
| CC(C)=CCC1=C(O)C(CC=C(C)C)(CC=C(C)C)C(=O)C(C(=O)c2ccccc2)=C1O [AH47-F3, 2-benzoyl-3,5-dihydroxy-4,6,6-tris(3-methylbut-2-en-1-yl)cyclohexa-2,4-dien-1-one] | < 12 µM | – |
| CC(C)=CCC1=C(O)C(CC=C(C)C)(CC=C(C)C)C(=O)C(C(=O)CCC(C)C)=C1O [AH39-F1, 3,5-dihydroxy-4,6,6-tris(3-methylbut-2-en-1-yl)-2-(4-methylpentanoyl)cyclohexa-2,4-dien-1-one] | < 12 µM | – |
| CC(=O)C1=C(O)C(CC=C(C)C)=C(O)C(CC=C(C)C)(CC=C(C)C)C1=O [AH16-F2, 2-acetyl-3,5-dihydroxy-4,6,6-tris(3-methylbut-2-en-1-yl)cyclohexa-2,4-dien-1-one] | < 12 µM | – |
| CC(C)=CCC1=C(O)C(CC=C(C)C)(CC=C(C)C)C(=O)C(C(=O)C=Cc2ccccc2)=C1O [AH41-F1, 2-cinnamoyl-3,5-dihydroxy-4,6,6-tris(3-methylbut-2-en-1-yl)cyclohexa-2,4-dien-1-one] | < 12 µM | – |
| CC(C)=CCC1C(=O)C(C(=O)CC(C)C)=C(O)C=C1O (stereo not drawn) [AH55-F3, 3,5-dihydroxy-6-(3-methylbut-2-en-1-yl)-2-(3-methylbutanoyl)cyclohexa-2,4-dien-1-one] | < 24 µM | – |
| CC(C)=CCC1=C(O)C(C(=O)CC(C)C)=C(O)C(CC=C(C)C)(CC=C(C)C)C1=O [Lupulone] | < 3 µM | – |
| CCCC(=O)C1=C(O)C(CC=C(C)C)=C(O)C(CC=C(C)C)(CC=C(C)C)C1=O [AH10-F2, 2-butyryl-3,5-dihydroxy-4,6,6-tris(3-methylbut-2-en-1-yl)cyclohexa-2,4-dien-1-one] | < 3 µM | – |
| CC(=O)c1c(O)c(CC=C(C)C)c(O)c(CC=C(C)C)c1O [AH52-F1, 1-(2,4,6-trihydroxy-3,5-bis-(3-methylbut-2-en-1-yl)phenyl)ethan-1-one] | > 24 µM | – |
| CC(C)=CCc1c(O)cc(O)c(C(=O)C(C)C)c1O [AH56-F3, 2-methyl-1-(2,4,6-trihydroxy-3-(3-methylbut-2-en-1-yl)phenyl)propan-1-one] | – | IC50 [1]: > 24 µM |
| CC(C)=CCC1=C(O)C(CC=C(C)C)(CC=C(C)C)C(=O)C(C(=O)C(C)C)=C1O [LB.70-F2, 3,5-dihydroxy-4,6,6-tris(3-methylbut-2-en-1-yl)-2-(2-methylpropanoyl)cyclo-hexa-2,4-dien-1-one] | < 3 µM | – |
| CCC(C)CC(=O)C1=C(O)C(CC=C(C)C)=C(O)C(CC=C(C)C)(CC=C(C)C)C1=O (stereo not drawn) [AH40-F1, 3,5-dihydroxy-4,6,6-tris(3-methylbut-2-en-1-yl)-2-(3-methylpentanoyl)cyclohexa-2,4-dien-1-one] | < 12 µM | – |
| CC(C)=CCC1=C(O)C(CC=C(C)C)(CC=C(C)C)C(=O)C(C(=O)CC(C)C)=C1O [AH6-F2, 3,5-dihydroxy-4,6,6-tris(3-methylbut-2-en-1-yl)-2-(3-methylbutanoyl)cyclohexa-2,4-dien-1-one] | < 3 µM | – |
| CCCCC(=O)C1=C(O)C(CC=C(C)C)=C(O)C(CC=C(C)C)(CC=C(C)C)C1=O [AH18-F4, 3,5-dihydroxy-4,6,6-tris(3-methylbut-2-en-1-yl)-2-pentanoylcyclohexa-2,4-dien-1-one] | < 12 µM | – |
| CCC(=O)C1=C(O)C(CC=C(C)C)=C(O)C(CC=C(C)C)(CC=C(C)C)C1=O [AH17-F2, 3,5-dihydroxy-4,6,6-tris(3-methylbut-2-en-1-yl)-2-propionylcyclohexa-2,4-dien-1-one] | > 24 µM | – |
| CC(C)=CCC1(CC=C(C)C)C(=O)CC(O)=C(C(=O)CC(C)C)C1=O [LB68-F3, 5-hydroxy-2,2-bis(3-methylbut-2-en-1-yl)-4-(3-methylbutanoyl)cyclohex-4-ene-1,3-dione] | < 12 µM | – |
| CCC(C)C(=O)c1c(O)cc(O)c(CC=C(C)C)c1O (stereo not drawn) [AH57-F3, 2-methyl-1-(2,4,6-trihydroxy-3-(3-methylbut-2-en-1-yl)phenyl)butan-1-one] | < 24 µM | – |
| CC(C)=CCC1=C(O)[C@](O)(CC=C(C)C)C(=O)C(C(=O)CC(C)C)=C1O [Humulone, reference compound] | > 24 µM | – |
| Ad-lupulone | – | IC50 [1]: < 12 µM |
| CC(C)=CCC1=C(O)[C@](O)(CC=C(C)C)C(=O)C(C(=O)C(C)C)=C1O [Co-humulone, reference compound] | > 24 µM | – |
